As a reminder, the IC50 is the midpoint of a concentration-inhibition curve.

The test system of one assay is HeLa. The assay can be described thus: Cytotoxicity against human HeLa cells assessed as reduction in cell viability incubated for 48 hrs by MTT assay. In kind it is functional, cell-based. A general note: Formazan colour is commonly taken as a measure of viable cells.
Another assay concerns HepG2. The assay can be described thus: Cytotoxicity against human HepG2 cells assessed as reduction in cell viability incubated for 48 hrs by MTT assay. In kind it is functional, cell-based. As to conditions: HepG2, 48 h.
Another assay deals with SGC-7901. The assay can be described thus: Cytotoxicity against human SGC-7901 cells assessed as reduction in cell viability incubated for 48 hrs by MTT assay. As to conditions: SGC-7901, 48 h. In kind it is functional, cell-based.
The test system of a further assay is ECa-109 cell line. The assay can be described thus: Cytotoxicity against human ECa-109 cells assessed as reduction in cell viability incubated for 48 hrs by MTT assay. The format is functional, cell-based. As to conditions: ECa-109, 48 h.
Another assay deals with L02. The assay can be described thus: Cytotoxicity against human HL7702 cells assessed as reduction in cell viability incubated for 48 hrs by MTT assay. In kind it is ADME, cell-based. As to conditions: L02, 48 h.

A value given as a limit tells only on which side of the number the result lay.

On to `C[n+]1nn(Cc2ccc(F)cc2)c2c1C[C@]1(C)[C@H]3CC[C@@H]4[C@H]5[C@H]6OC[C@@]5(CCC6(C)C)CC[C@@]4(C)[C@]3(C)CC[C@H]1C2(C)C`, for which the IC50 with HeLa was 3.03 µM; with HepG2 it was 2.89 µM; in the assay on SGC-7901 it was 3.02 µM; with ECa-109 cell line, 3.06 µM; in the assay on L02, 2.2 µM.

As to `COc1cc(Cn2nnc3c2C(C)(C)[C@@H]2CC[C@]4(C)[C@H](CC[C@@H]5[C@H]6[C@H]7OC[C@@]6(CCC7(C)C)CC[C@]54C)[C@@]2(C)C3)cc(OC)c1OC`, the IC50 in the assay on HeLa was found to be 9.07 µM; in the assay with HepG2 it was 12.1 µM; in the assay with SGC-7901 it was 10.7 µM; with ECa-109 cell line, 6.24 µM; in the assay with L02 it was 6.65 µM.

In the case of `C[n+]1nn(CC(c2ccccc2)c2ccccc2)c2c1C[C@]1(C)[C@H]3CC[C@@H]4[C@H]5[C@H]6OC[C@@]5(CCC6(C)C)CC[C@@]4(C)[C@]3(C)CC[C@H]1C2(C)C`, the IC50 with HeLa was 2.67 µM; in the assay on HepG2 it was 2.96 µM; in the assay with SGC-7901, 2.18 µM; in the assay on ECa-109 cell line it was 2.28 µM; with L02, 1.61 µM.

For the compound `C[n+]1nn(Cc2cccc(Cl)c2)c2c1C[C@]1(C)[C@H]3CC[C@@H]4[C@H]5[C@H]6OC[C@@]5(CCC6(C)C)CC[C@@]4(C)[C@]3(C)CC[C@H]1C2(C)C`, the IC50 in the assay on HeLa was found to be 2.07 µM; with HepG2, 2.67 µM; in the assay with SGC-7901, 2.41 µM; in the assay on ECa-109 cell line, 3.01 µM; in the assay on L02, 1.89 µM.

Turning to `CC1(C)CC[C@]23CC[C@]4(C)[C@H](CC[C@@H]5[C@@]6(C)Cc7nnn(Cc8ccc(F)cc8)c7C(C)(C)[C@@H]6CC[C@]54C)[C@H]2[C@H]1OC3`, the IC50 in the assay on HeLa was greater than 80 µM; in the assay with HepG2 it was 47.7 µM; in the assay on SGC-7901, greater than 80 µM; in the assay with ECa-109 cell line, 69 µM; in the assay with L02, 42 µM.

Take `CCCCn1n[n+](C)c2c1C(C)(C)[C@@H]1CC[C@]3(C)[C@H](CC[C@@H]4[C@H]5[C@H]6OC[C@@]5(CCC6(C)C)CC[C@]43C)[C@@]1(C)C2`: the IC50 in the assay on HeLa came out at 3.99 µM; in the assay with HepG2, 3.97 µM; with SGC-7901, 3.25 µM; with ECa-109 cell line it was 5.14 µM; in the assay with L02, 2.2 µM.

`CC1(C)CC[C@]23CC[C@]4(C)[C@H](CC[C@@H]5[C@@]6(C)Cc7nnn(Cc8ccccn8)c7C(C)(C)[C@@H]6CC[C@]54C)[C@H]2[C@H]1OC3`: the IC50 with HeLa, in the assay with HepG2, with SGC-7901, with ECa-109 cell line and in the assay on L02 was greater than 80 µM each time.

Consider `CCCCCCn1n[n+](C)c2c1C(C)(C)[C@@H]1CC[C@]3(C)[C@H](CC[C@@H]4[C@H]5[C@H]6OC[C@@]5(CCC6(C)C)CC[C@]43C)[C@@]1(C)C2`, for which the IC50 came out at 2.45 µM in the assay on HeLa; 1.93 µM in the assay on HepG2; 1.65 µM in the assay on SGC-7901; 3.08 µM in the assay on ECa-109 cell line; 1.33 µM in the assay with L02.

For `COc1ccc(Cn2nnc3c2C(C)(C)[C@@H]2CC[C@]4(C)[C@H](CC[C@@H]5[C@H]6[C@H]7OC[C@@]6(CCC7(C)C)CC[C@]54C)[C@@]2(C)C3)cc1`, the IC50 with HeLa came out at 12.7 µM; in the assay on HepG2, 13.7 µM; in the assay on SGC-7901 it was 16.9 µM; in the assay on ECa-109 cell line, 17.2 µM; with L02, 11.2 µM.

As for `CC1(C)CC[C@]23CC[C@]4(C)[C@H](CC[C@@H]5[C@@]6(C)CC[C@H](O)C(C)(C)[C@@H]6CC[C@]54C)[C@H]2[C@H]1OC3` [ALLOBETULIN], the IC50 was determined as 45.6 µM with HeLa; 55.9 µM with HepG2; 62.4 µM in the assay with SGC-7901; 47.6 µM with ECa-109 cell line; 42.7 µM in the assay on L02.

Turning to `CC1(C)CC[C@]23CC[C@]4(C)[C@H](CC[C@@H]5[C@@]6(C)Cc7nnn(CC(c8ccccc8)c8ccccc8)c7C(C)(C)[C@@H]6CC[C@]54C)[C@H]2[C@H]1OC3`, the IC50 in the assay on HeLa came out at 44.1 µM; with HepG2, 53.9 µM; in the assay on SGC-7901, 47.9 µM; with ECa-109 cell line it was 48.5 µM; in the assay with L02, 40.7 µM.

`Cc1ccc(Cn2nnc3c2C(C)(C)[C@@H]2CC[C@]4(C)[C@H](CC[C@@H]5[C@H]6[C@H]7OC[C@@]6(CCC7(C)C)CC[C@]54C)[C@@]2(C)C3)cc1`: the IC50 in the assay with HeLa was determined as 32.3 µM; with HepG2, 26.6 µM; in the assay on SGC-7901, 20.3 µM; with ECa-109 cell line, 34.8 µM; in the assay with L02, 22.7 µM.

Turning to `COc1cc(Cn2n[n+](C)c3c2C(C)(C)[C@@H]2CC[C@]4(C)[C@H](CC[C@@H]5[C@H]6[C@H]7OC[C@@]6(CCC7(C)C)CC[C@]54C)[C@@]2(C)C3)cc(OC)c1OC`, the IC50 in the assay with HeLa worked out at 3.8 µM; with HepG2 it was 3.04 µM; with SGC-7901 it was 5.56 µM; in the assay with ECa-109 cell line, 3.35 µM; with L02, 3.8 µM.

In the case of `CC1(C)CC[C@]23CC[C@]4(C)[C@H](CC[C@@H]5[C@@]6(C)Cc7nnn(CCc8c[nH]c9ccccc89)c7C(C)(C)[C@@H]6CC[C@]54C)[C@H]2[C@H]1OC3`, the IC50 in the assay with HeLa is 22.1 µM; in the assay with HepG2, 14.4 µM; in the assay with SGC-7901 it was 19.8 µM; in the assay with ECa-109 cell line, 18.2 µM; with L02, 10.3 µM.

`CC1(C)CC[C@]23CC[C@]4(C)[C@H](CC[C@@H]5[C@@]6(C)Cc7nnn(Cc8c(F)cccc8Cl)c7C(C)(C)[C@@H]6CC[C@]54C)[C@H]2[C@H]1OC3`: the IC50 came out at 23.3 µM in the assay on HeLa; 24.3 µM in the assay on HepG2; 26.1 µM in the assay on SGC-7901; 27 µM in the assay on ECa-109 cell line; 19.5 µM in the assay on L02.

As to `CC1(C)CC[C@]23CC[C@]4(C)[C@H](CC[C@@H]5[C@@]6(C)Cc7nnn(Cc8ccccc8)c7C(C)(C)[C@@H]6CC[C@]54C)[C@H]2[C@H]1OC3`, the IC50 with HeLa is greater than 80 µM; in the assay with HepG2, 59.4 µM; in the assay on SGC-7901, 55.7 µM; in the assay on ECa-109 cell line it was 53.2 µM; in the assay on L02, 38.5 µM.

For the compound `COc1cccc(Cn2nnc3c2C(C)(C)[C@@H]2CC[C@]4(C)[C@H](CC[C@@H]5[C@H]6[C@H]7OC[C@@]6(CCC7(C)C)CC[C@]54C)[C@@]2(C)C3)c1`, the IC50 in the assay with HeLa worked out at 11.2 µM; in the assay with HepG2, 12.7 µM; in the assay with SGC-7901, 12 µM; in the assay with ECa-109 cell line, 10.4 µM; in the assay with L02, 10.5 µM.

In the case of `CCCCCCn1nnc2c1C(C)(C)[C@@H]1CC[C@]3(C)[C@H](CC[C@@H]4[C@H]5[C@H]6OC[C@@]5(CCC6(C)C)CC[C@]43C)[C@@]1(C)C2`, the IC50 in the assay on HeLa was greater than 80 µM; in the assay on HepG2, greater than 80 µM; with SGC-7901 it was 40.9 µM; with ECa-109 cell line, 37.4 µM; with L02, 51.9 µM.

Turning to `C[n+]1nn(Cc2ccc(C(F)(F)F)cc2)c2c1C[C@]1(C)[C@H]3CC[C@@H]4[C@H]5[C@H]6OC[C@@]5(CCC6(C)C)CC[C@@]4(C)[C@]3(C)CC[C@H]1C2(C)C`, the IC50 came out at 3.06 µM in the assay with HeLa; 2.49 µM in the assay on HepG2; 2.84 µM in the assay on SGC-7901; 3.18 µM with ECa-109 cell line; 2.26 µM with L02.

As to `C[n+]1nn(Cc2ccccc2)c2c1C[C@]1(C)[C@H]3CC[C@@H]4[C@H]5[C@H]6OC[C@@]5(CCC6(C)C)CC[C@@]4(C)[C@]3(C)CC[C@H]1C2(C)C`, the IC50 in the assay with HeLa worked out at 3.02 µM; in the assay with HepG2, 2.89 µM; with SGC-7901 it was 2.83 µM; in the assay with ECa-109 cell line, 3.29 µM; in the assay with L02 it was 2 µM.

On to `COc1ccccc1Cn1nnc2c1C(C)(C)[C@@H]1CC[C@]3(C)[C@H](CC[C@@H]4[C@H]5[C@H]6OC[C@@]5(CCC6(C)C)CC[C@]43C)[C@@]1(C)C2`, for which the 50% inhibitory concentration (IC50) in the assay on HeLa turned out to be 41.9 µM; in the assay with HepG2 it was 46.7 µM; with SGC-7901, 53 µM; with ECa-109 cell line it was 57.9 µM; in the assay with L02, 38.4 µM.

For `COc1ccc(CCn2n[n+](C)c3c2C(C)(C)[C@@H]2CC[C@]4(C)[C@H](CC[C@@H]5[C@H]6[C@H]7OC[C@@]6(CCC7(C)C)CC[C@]54C)[C@@]2(C)C3)cc1`, the IC50 with HeLa stood at 2.85 µM; in the assay on HepG2 it was 2.91 µM; in the assay with SGC-7901, 2.39 µM; in the assay with ECa-109 cell line, 1.97 µM; in the assay with L02, 2.09 µM.

For `COc1ccccc1CCn1nnc2c1C(C)(C)[C@@H]1CC[C@]3(C)[C@H](CC[C@@H]4[C@H]5[C@H]6OC[C@@]5(CCC6(C)C)CC[C@]43C)[C@@]1(C)C2`, the IC50 is 33.9 µM in the assay on HeLa; 32.8 µM in the assay with HepG2; 38.6 µM in the assay with SGC-7901; 34.9 µM with ECa-109 cell line; 31.9 µM with L02.

Consider `C[n+]1nn(CCc2c[nH]c3ccccc23)c2c1C[C@]1(C)[C@H]3CC[C@@H]4[C@H]5[C@H]6OC[C@@]5(CCC6(C)C)CC[C@@]4(C)[C@]3(C)CC[C@H]1C2(C)C`, for which the IC50 in the assay on HeLa came to 3.19 µM; in the assay on HepG2 it was 3.17 µM; in the assay with SGC-7901, 3.05 µM; with ECa-109 cell line, 3.13 µM; in the assay with L02 it was 2.9 µM.

For `C[n+]1nn(Cc2ccc(Cl)cc2)c2c1C[C@]1(C)[C@H]3CC[C@@H]4[C@H]5[C@H]6OC[C@@]5(CCC6(C)C)CC[C@@]4(C)[C@]3(C)CC[C@H]1C2(C)C`, the IC50 in the assay with HeLa amounted to 2.45 µM; in the assay on HepG2 it was 1.73 µM; with SGC-7901, 2.68 µM; in the assay on ECa-109 cell line, 2.16 µM; with L02, 1.62 µM.

Values taken from ChEMBL document CHEMBL4706545, “Antiproliferative effect of mitochondria-targeting allobetulin 1,2,3-triazolium salt derivatives and their mechanism of inducing apoptosis of cancer cells” (Eur J Med Chem, 2020).
